Columns and labels:
[1] = test system: hypoxia-inducible factor-1α (HIF-1α); assay: Western blot of HIF-1α in HP- and DFX-treated hUCB^34 cells; assay type: cell-based, human; details: HP- and DFX-treated hUCBs^34
Experimental: (§1) hUCB^34 cells (1×10^6/mL) were cultured in a StemSpan SFEM medium (StemCell Technologies, Vancouver, Canada) at 37° C. in 5% CO2-humidified incubators in normoxic (20% O2) or hypoxic (1% O2) conditions as previously described (Ivanovic et al., 2000, Br J Haematol 108:424-429). Hypoxic cultures were cultivated in a two-gas incubator (Jouan, Winchester, Va., USA) equipped with an O2 probe to regulate N2 levels. Cell number and viability were evaluated using trypan blue exclusion assay. For flowcytometry, cells were incubated with anti-human CD34 (Miltenyi Biotec, Gladbach, Germany) and then analyzed on a FACSCalibur flow cytometer (Becton, Dickinson and Co.). To produce chemical hypoxia, cells were treated in a medium containing […] of Desferrioxamine (DFX, Sigma-Aldrich, MO) that mimics hypoxic conditions by inhibiting the hydroxylation of a prolyl residue that is essential for the ubiquitination of HIF-1α (Schioppa et al., 2003, J Exp Med 198:1391-1402). […] The intensity of each band was measured using a Kodak Digital Science 1D Image Analysis System (Eastman Kodak, Rochester, N.Y.). The ratio of band intensity of Western blots in comparison with the internal control was calculated. Results were expressed as the mean value of the ratio±SEM for preparations.

Epac1 = assay: Western blot of Epac1 in hUCB^34 cells after hypoxia preconditioning or DFX; assay type: cell-based, human; details: cells treated with DFX, under either hypoxic or normoxic conditions
Experimental: as §1

cerebral ischemia rats = assay: Neurological behavioral measurements after cerebral ischemia (MCA ligation); assay type: in vivo, rat; details: GM6001 ip after HP-hUCB^34 implantation, or brefeldin A-incubated HP-hUCB^34; vs vehicle control
Experimental: (§2) Experimental rats and mice were divided into three groups (FIG. 2A): Intracerebral transplantation of hUCB^34 with HP (HP-hUCB^34), intracerebral transplantation of hUCB^34 without HP (hUCB^34), and a vehicle-control group. All transplantation took place on day 7. The HP-hUCB^34 group was treated in 1% O2 hypoxic conditions for 20-24 hours. Cerebral ischemia was induced in every experimental rat on day 0. At 7 days after cerebral ischemia, experimental rats in the two intracerebral hUCB^34 transplantation groups were injected stereotaxically with approximately 2×10^5 cells of hUCB^34 labeled with bis-benzimide in a 3-5 μL PBS suspension through a 26- or 30-gauge Hamilton syringe into 3 cortical areas, 3.0 to 5.0 mm (2.0 to 3.0 mm for mice) below the dura. The approximate coordinates for these sites were 1.0 to 2.0 mm (0 to 1.0 mm for mice) anterior to the bregma and 3.5 to 4.0 mm (2.0 to 2.5 mm for mice) lateral to the midline, 0.5 to 1.5 mm (0 to 1.0 mm for mice) posterior to the bregma and 4.0 to 4.5 mm (2.0 to 3.5 mm for mice) lateral to the midline, and 3.0 to 4.0 mm (1.5 to 2.5 mm for mice) posterior to the bregma and 4.5 to 5.0 mm (2.0 to 3.0 mm for mice) lateral to the midline. The needle was retained in place for 5 minutes after each injection and a piece of bone wax was applied to the skull defects to prevent leakage of the injected solution. […]

ischemic rat brains = assay: Cell engraftment and neural differentiation in ischemic brain (immunofluorescent colocalization); assay type: in vivo; details: injection of GM6001 or brefeldin A-pretreatment of cells
Experimental: as §2

cerebral ischemic rats = assay: Neurite regeneration in vivo in cerebral ischemic rats; set-up: species or system rat; details: cells incubated with 10 μg/mL brefeldin A
Experimental: Experimental rats and mice were divided into three groups (FIG. 2A): Intracerebral transplantation of hUCB^34 with HP (HP-hUCB^34), intracerebral transplantation of hUCB^34 without HP (hUCB^34), and a vehicle-control group. All transplantation took place on day 7. The HP-hUCB^34 group was treated in 1% O2 hypoxic conditions for 20-24 hours. Cerebral ischemia was induced in every experimental rat on day 0. At 7 days after cerebral ischemia, experimental rats in the two intracerebral hUCB^34 transplantation groups were injected stereotaxically with approximately 2×10^5 cells of hUCB^34 labeled with bis-benzimide in a 3-5 μL PBS suspension through a 26- or 30-gauge Hamilton syringe into 3 cortical areas, 3.0 to 5.0 mm (2.0 to 3.0 mm for mice) below the dura. […]
Measurement of neurite regeneration was performed as described earlier (Cafferty et al., 2004, J Neurosci 24:4432-4443). […] For quantification analysis, neurons with processes greater than twice the cell body diameter were counted as neurite-bearing cells. The length of the longest neurite of each neuron was measured from digitized images and quantified using imaging analysis software (SigmaScan 4.01.003).

CC(=O)N(O)CCCCCNC(=O)CCC(=O)N(O)CCCCCNC(=O)CCC(=O)N(O)CCCCCN [DFX, Desferrioxamine]
protein level of HIF-1α [1]: increase in the protein level
levels of Epac1 versus control cells (Epac1): much higher levels of Epac1 than control cells

CNC(=O)[C@H](Cc1c[nH]c2ccccc12)NC(=O)[C@@H](CC(=O)NO)CC(C)C [GM6001]
neurological behavior recovery after HP-hUCB^34 implantation in presence of inhibitor (cerebral ischemia rats): almost no recovery
number of engrafted cells in HP-hUCB^34-treated rats with inhibitor (ischemic rat brains): diminished

C[C@H]1CCC/C=C/[C@@H]2C[C@H](O)C[C@H]2[C@H](O)/C=C/C(=O)O1 [brefeldin A]
neurological behavior recovery after HP-hUCB^34 implantation in presence of inhibitor (cerebral ischemia rats): down-regulated to the same extent as that of control group
number of engrafted cells in HP-hUCB^34-treated rats with inhibitor (ischemic rat brains): diminished
neurite regeneration after transplantation of brefeldin A-incubated HP-hUCB^34 (cerebral ischemic rats): could not promote the neurite regeneration

Reference: patent US20100310530A1, “Cell Therapy for Brain Tissue Damage” (StemCyte Inc., priority 2009, published 2010)
